Here are results for 15 molecules from ChEMBL document CHEMBL5370585, “Exploration and Biological Evaluation of 1,3-Diamino-7H-pyrrol[3,2-f]quinazoline Derivatives as Dihydrofolate Reductase Inhibitors” (J Med Chem, 2023).

Assay [1] relates to Staphylococcus aureus. Put plainly: Antibacterial activity against Staphylococcus aureus ATCC 29213 incubated for 16 to 18 hrs by CLSI based broth dilution method. In kind it is functional. As to conditions: time 16-18 hrs. (Dilution methods test growth across graded concentrations, often in twofold steps.)
For assay [2], the system named is Staphylococcus aureus. Briefly: Antibacterial activity against methicillin-resistant Staphylococcus aureus ATCC 43300 incubated for 16 to 18 hrs by CLSI based broth dilution method. In kind it is functional. As to conditions: time 16-18 hrs.
In assay [3] the test system is Staphylococcus epidermidis. Put plainly: Antibacterial activity against Staphylococcus epidermidis ATCC 12228 incubated for 16 to 18 hrs by CLSI based broth dilution method. In kind it is functional. As to conditions: time 16-18 hrs.
A further assay relates to Acinetobacter baumannii. Put plainly: Antibacterial activity against Acinetobacter baumannii ATCC 19606 incubated for 16 to 18 hrs by CLSI based broth dilution method. The assay is classed as functional. As to conditions: time 16-18 hrs.
Another assay has as its system Enterococcus faecalis. Briefly: Antibacterial activity against Enterococcus faecalis ATCC 29212 incubated for 16 to 18 hrs by CLSI based broth dilution method. In kind it is functional. As to conditions: time 16-18 hrs.
The next assay relates to Escherichia coli. Put plainly: Antibacterial activity against Escherichia coli ATCC 25922 incubated for 16 to 18 hrs by CLSI based broth dilution method. In kind it is functional. As to conditions: time 16-18 hrs.
Assay [4] concerns the target T1, Dihydrofolate reductase (Homo sapiens) (UniProt P00374).
T1 sequence (whole entry): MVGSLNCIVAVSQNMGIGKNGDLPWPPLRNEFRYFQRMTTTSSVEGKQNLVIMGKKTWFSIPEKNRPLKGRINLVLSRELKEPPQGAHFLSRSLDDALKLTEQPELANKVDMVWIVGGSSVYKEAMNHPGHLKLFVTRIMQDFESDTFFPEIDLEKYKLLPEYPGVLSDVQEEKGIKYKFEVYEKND
Briefly: Inhibition of human DHFR at 1 uM incubated for 10 mins in presence of NADPH by colorimetry based analysis relative to control.

Another assay concerns MCF7. Put plainly: Cytotoxicity against human MCF7 cells measured after 72 hrs by MTT assay. The assay is classed as functional, cell-based. As to conditions: MCF7, 72 h.
The test system of the next assay is HGC-27. Briefly: Cytotoxicity against human HGC-27 cells measured after 72 hrs by MTT assay. As to conditions: HGC-27, 72 h. In kind it is functional, cell-based. (Tetrazolium assays rely on reduction of a dye to a coloured formazan, in cell work by metabolically active cells.)
The subject of a further assay is HCT-116. Briefly: Cytotoxicity against human HCT-116 cells measured after 72 hrs by MTT assay. In kind it is functional, cell-based. As to conditions: HCT-116, 72 h.
Another assay relates to HepG2. Put plainly: Cytotoxicity against human HepG2 cells measured after 72 hrs by MTT assay. In kind it is functional, cell-based. As to conditions: HepG2, 72 h.

≈ marks a conversion by molar mass, not a printed value.

The term MIC denotes the smallest concentration in the dilution series that meets the test's criterion for growth inhibition. Lower therefore signals inhibition by little substance. What is called inhibition is the share of the control response that was lost under treatment. By IC50 is commonly meant the point on the concentration scale where inhibition reaches its midpoint. The low end stands for greater potency in that assay, the high end for weaker potency in that assay. Take `Cc1cc2c3c(N)nc(N)nc3ccc2n1Cc1cccc2scnc12`: the MIC in the assay on Staphylococcus aureus [1] is 1 µg/mL (≈ 2.77 µM); against Staphylococcus aureus [2], 1 µg/mL (≈ 2.77 µM); in assay [3], at most 0.004 µg/mL; in the assay with Acinetobacter baumannii it was 8 µg/mL (≈ 22.2 µM); against Enterococcus faecalis, 2 µg/mL (≈ 5.55 µM); in the assay with Escherichia coli, over 8 µg/mL. For the same molecule, the inhibition in assay [4] turned out to be 99.4%. The IC50 with MCF7 is 450 nM; with HGC-27, 4500 nM; in the assay on HCT-116, over 10000 nM; in the assay with HepG2 it was 250 nM.

As for `Nc1nc(N)c2c(ccc3c2ccn3Cc2ccc3ncsc3c2)n1`, the minimum inhibitory concentration (MIC) was 0.25 µg/mL (≈ 0.722 µM) with Staphylococcus aureus [1]; 0.125 µg/mL (≈ 0.361 µM) in the assay with Staphylococcus aureus [2]; at most 0.004 µg/mL in assay [3]; 16 µg/mL (≈ 46.2 µM) in the assay with Acinetobacter baumannii; 0.25 µg/mL (≈ 0.722 µM) in the assay on Enterococcus faecalis; 0.25 µg/mL (≈ 0.722 µM) against Escherichia coli. The inhibition in assay [4] was found to be 80.6%. The IC50 in the assay on MCF7 is 3870 nM; in the assay on HGC-27, 310 nM; in the assay with HCT-116, over 10000 nM; in the assay with HepG2, 1170 nM.

For the molecule `Nc1nc(N)c2c(ccc3c2ccn3Cc2ccc(C(=O)O)c3ccccc23)n1`, the MIC against Staphylococcus aureus [1] was 2 µg/mL (≈ 5.22 µM); with Staphylococcus aureus [2], 2 µg/mL (≈ 5.22 µM); in assay [3] it was 0.5 µg/mL (≈ 1.3 µM); in the assay with Acinetobacter baumannii it was over 32 µg/mL; with Enterococcus faecalis it was 2 µg/mL (≈ 5.22 µM); against Escherichia coli, over 8 µg/mL. In [4], the inhibition was found to be 93.5%. Moreover, the half-inhibitory concentration (IC50) in the assay with MCF7, in the assay with HGC-27, in the assay with HCT-116 and with HepG2 was over 10000 nM throughout.

With `Nc1nc(N)c2c(ccc3c2ccn3Cc2cccc3sc(N)nc23)n1`, the minimum inhibitory concentration (MIC) was 0.25 µg/mL (≈ 0.692 µM) against Staphylococcus aureus [1]; 0.125 µg/mL (≈ 0.346 µM) with Staphylococcus aureus [2]; at most 0.004 µg/mL in assay [3]; 32 µg/mL (≈ 88.5 µM) against Acinetobacter baumannii; 0.25 µg/mL (≈ 0.692 µM) against Enterococcus faecalis; 0.5 µg/mL (≈ 1.38 µM) against Escherichia coli. Also, in assay [4], the inhibition is 77.4%. Moreover, the IC50 turned out to be 790 nM in the assay on MCF7, 1770 nM in the assay on HGC-27, 5810 nM in the assay with HCT-116 and 260 nM with HepG2.

`Nc1nc(N)c2c(ccc3c2ccn3Cc2ccc3occc3c2)n1`: the MIC in the assay with Staphylococcus aureus [1] is 0.06 µg/mL (≈ 0.182 µM); against Staphylococcus aureus [2] it was 0.004 µg/mL (≈ 0.0121 µM); in [3], at most 0.004 µg/mL; against Acinetobacter baumannii, 1 µg/mL (≈ 3.04 µM); against Enterococcus faecalis, 0.03 µg/mL (≈ 0.0911 µM); against Escherichia coli it was 0.125 µg/mL (≈ 0.38 µM). The inhibition in [4] was found to be 64.5%. For the same molecule, the IC50 in the assay with MCF7 was 1000 nM; in the assay with HGC-27 it was 410 nM; in the assay on HCT-116 it was 2460 nM; with HepG2, 1250 nM.

As to `Nc1nc(N)c2c(ccc3c2ccn3Cc2ccc3nc(N)sc3c2)n1`, the MIC in the assay on Staphylococcus aureus [1] was 2 µg/mL (≈ 5.53 µM); against Staphylococcus aureus [2], 2 µg/mL (≈ 5.53 µM); in [3], at most 0.004 µg/mL; against Acinetobacter baumannii, over 32 µg/mL; in the assay on Enterococcus faecalis, 2 µg/mL (≈ 5.53 µM); in the assay with Escherichia coli, 4 µg/mL (≈ 11.1 µM). For the same molecule, the inhibition in [4] stood at 90.2%. For the same molecule, the IC50 in the assay with MCF7 was 250 nM; in the assay with HGC-27 it was 6 nM; in the assay on HCT-116, 4 nM; with HepG2, 61 nM.

For the molecule `Nc1nc(N)c2c(ccc3c2ccn3Cc2cc3ccccc3o2)n1`, the MIC against Staphylococcus aureus [1] is 0.25 µg/mL (≈ 0.759 µM); with Staphylococcus aureus [2], 0.25 µg/mL (≈ 0.759 µM); in [3] it was at most 0.004 µg/mL; in the assay on Acinetobacter baumannii, 32 µg/mL (≈ 97.2 µM); with Enterococcus faecalis, 0.25 µg/mL (≈ 0.759 µM); in the assay on Escherichia coli, 0.25 µg/mL (≈ 0.759 µM). For the same molecule, the inhibition in assay [4] was 29.1%. The IC50 came out at 1000 nM in the assay with MCF7, 590 nM with HGC-27, 4800 nM in the assay with HCT-116 and 1070 nM in the assay on HepG2.

Turning to `Nc1nc(N)c2c(ccc3c2ccn3Cc2nc3ccc(C(=O)O)cc3s2)n1`, the MIC is 8 µg/mL (≈ 20.5 µM) against Staphylococcus aureus [1]; over 8 µg/mL against Staphylococcus aureus [2]; 0.5 µg/mL (≈ 1.28 µM) in [3]; over 32 µg/mL against Acinetobacter baumannii; over 8 µg/mL against Enterococcus faecalis; over 8 µg/mL in the assay on Escherichia coli. The inhibition in [4] came to 80.6%. Besides, the IC50 in the assay on MCF7 was determined as 8120 nM; with HGC-27, 890 nM; in the assay on HCT-116 it was 1600 nM; with HepG2, 2190 nM.

On to `Nc1nc(N)c2c(ccc3c2ccn3Cc2cc3ccccc3s2)n1`, for which the MIC was 0.125 µg/mL (≈ 0.362 µM) in the assay on Staphylococcus aureus [1]; 0.125 µg/mL (≈ 0.362 µM) with Staphylococcus aureus [2]; at most 0.004 µg/mL in assay [3]; 32 µg/mL (≈ 92.6 µM) in the assay with Acinetobacter baumannii; 0.125 µg/mL (≈ 0.362 µM) against Enterococcus faecalis; 0.25 µg/mL (≈ 0.724 µM) against Escherichia coli. Further, the inhibition in assay [4] amounted to 70.9%. Also, the IC50 stood at 910 nM with MCF7, 510 nM with HGC-27, 1940 nM in the assay with HCT-116 and 270 nM in the assay on HepG2.

As for `Nc1nc(N)c2c(ccc3c2ccn3Cc2ccc3sc(N)nc3c2)n1`, the MIC is over 8 µg/mL in the assay on Staphylococcus aureus [1]; 8 µg/mL (≈ 22.1 µM) against Staphylococcus aureus [2]; 2 µg/mL (≈ 5.53 µM) in assay [3]; over 32 µg/mL against Acinetobacter baumannii; over 8 µg/mL against Enterococcus faecalis; over 8 µg/mL with Escherichia coli. For the same molecule, the IC50 in the assay with MCF7, in the assay with HGC-27, in the assay on HCT-116 and with HepG2 was over 10000 nM in each case.

On to `Nc1nc(N)c2c(ccc3c2ccn3Cc2ccc3sccc3c2)n1`, for which the MIC is 0.06 µg/mL (≈ 0.174 µM) in the assay with Staphylococcus aureus [1]; 0.03 µg/mL (≈ 0.0868 µM) with Staphylococcus aureus [2]; at most 0.004 µg/mL in [3]; 4 µg/mL (≈ 11.6 µM) with Acinetobacter baumannii; 0.06 µg/mL (≈ 0.174 µM) in the assay on Enterococcus faecalis; 0.25 µg/mL (≈ 0.724 µM) against Escherichia coli. Moreover, the inhibition in assay [4] was found to be 87%. For the same molecule, the IC50 in the assay with MCF7 was determined as 510 nM; in the assay on HGC-27, 560 nM; in the assay with HCT-116, 8800 nM; in the assay on HepG2, 530 nM.

Regarding `Nc1nc(N)c2c(ccc3c2ccn3Cc2ccc3ocnc3c2)n1`, the MIC is 8 µg/mL (≈ 24.2 µM) against Staphylococcus aureus [1]; 2 µg/mL (≈ 6.05 µM) with Staphylococcus aureus [2]; at most 0.004 µg/mL in assay [3]; over 32 µg/mL in the assay on Acinetobacter baumannii; 4 µg/mL (≈ 12.1 µM) in the assay with Enterococcus faecalis; 2 µg/mL (≈ 6.05 µM) against Escherichia coli. In assay [4], the inhibition turned out to be 29.1%. In addition, the IC50 is 5870 nM in the assay on MCF7, 3540 nM with HGC-27, over 10000 nM in the assay on HCT-116 and 3650 nM with HepG2.

Regarding `COC(=O)c1ccc2nc(Cn3ccc4c5c(N)nc(N)nc5ccc43)sc2c1`, the MIC in the assay on Staphylococcus aureus [1] was 4 µg/mL (≈ 9.89 µM); against Staphylococcus aureus [2], 2 µg/mL (≈ 4.94 µM); in assay [3], 0.008 µg/mL (≈ 0.0198 µM); against Acinetobacter baumannii it was over 32 µg/mL; in the assay with Enterococcus faecalis, 2 µg/mL (≈ 4.94 µM); against Escherichia coli, over 8 µg/mL. Moreover, the IC50 in the assay with MCF7 is over 10000 nM; in the assay on HGC-27, 240 nM; in the assay on HCT-116, 720 nM; in the assay with HepG2, 490 nM.

Turning to `COc1ccc2nc(Cn3ccc4c5c(N)nc(N)nc5ccc43)sc2c1`, the MIC in the assay on Staphylococcus aureus [1] is 0.5 µg/mL (≈ 1.33 µM); against Staphylococcus aureus [2], 0.25 µg/mL (≈ 0.664 µM); in assay [3], at most 0.004 µg/mL; against Enterococcus faecalis it was 0.5 µg/mL (≈ 1.33 µM); against Escherichia coli, 2 µg/mL (≈ 5.31 µM). The inhibition in assay [4] stood at 38.7%. Besides, the IC50 with MCF7 stood at 1190 nM; in the assay on HGC-27, 820 nM; in the assay on HCT-116, 4420 nM; in the assay on HepG2, 2710 nM.

For `Cc1cc2c3c(N)nc(N)nc3ccc2n1Cc1ccc(-c2ccccc2)cc1`, the MIC with Staphylococcus aureus [1] is 4 µg/mL (≈ 10.5 µM); with Staphylococcus aureus [2] it was 4 µg/mL (≈ 10.5 µM); in assay [3], at most 0.004 µg/mL; against Acinetobacter baumannii, over 32 µg/mL; in the assay with Enterococcus faecalis, 4 µg/mL (≈ 10.5 µM); against Escherichia coli it was over 8 µg/mL. The IC50 came to 1470 nM with MCF7, 7060 nM in the assay on HGC-27, 2260 nM with HCT-116 and 1310 nM with HepG2.
